What all share (format): biochemical
In assay [1] the target is T1, MIF (Homo sapiens, UniProt P14174).
T1 construct: His tag (C); made in house; host or cells: Escherichia coli BL21 (DE3), pET-20b(+)
T1 sequence (P14174 2-115 limits assumed): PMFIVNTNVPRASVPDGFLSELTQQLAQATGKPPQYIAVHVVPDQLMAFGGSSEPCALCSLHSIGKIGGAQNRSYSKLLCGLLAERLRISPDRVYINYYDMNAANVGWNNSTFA
In words: MIF tautomerase activity inhibition (4-HPP substrate, UV 306 nm). The conditions noted are these: for potency relative to corresponding chloro-substituted intermediate: iodo compound vs chloro intermediate. How it is done:
2. Preparation of recombinant MIF and MIF2.
The detailed procedure to produce C-terminal His-tagged recombinant human MIF was reported in our previous publications.[1,4,5] rhMIF was expressed through transforming a pET-20b(+) plasmid containing the target gene into Escherichia coli BL21 (DE3) according to literature procedures.[6] Overexpression was performed and cells were collected and sonicated.
The obtained supernatant was applied to a medium pressure chromatography system (Biologic Duoflow) equipped with a His trap HP (5 mL) column with detection at 280 nm for the eluent.
The column was washed with a binding buffer containing 50 mM Tris and 10% glycerol at pH 7.4 and eluted with elution buffer containing 500 mM imidazole, 50 mM Tris, 10% glycerol at pH 7.4. The pure fractions (as judged by SDS-PAGE) were pooled and subjected to a PD-10 column (GE healthcare) that was equilibrated with PBS buffer at pH 7.4 to remove the high concentration of imidazole. The collected MIF solution was divided into 50 µL aliquots and stored at –80 °C. Purity of obtained protein was tested by SDS-PAGE and Coomassie staining.
The concentration of protein was determined using the Bradford assay.
(§1) The detailed procedure to produce recombinant human MIF2 was reported in our previous publications.[7] Gene sequences of the human MIF2 gene (Invitrogen) was adapted to bacterial expression. After subcloning into a pET20b(+) expression vector, IPTG-induced expression was performed in E.coli strain BL21(DE3). MIF2 proteins were overproduced overnight and harvested cells were resuspended and sonicated. The soluble fraction was puriﬁed using a Q sepharose column (GE Healthcare) with a gradient of NaCl. The fractions containing MIF2 were brought to 1.7 M ammonium sulfate and loaded on a phenyl sepharose column (GE Healthcare) and eluted with a gradient to 0 M ammonium sulfate in a 20 mM sodium phosphate buffer, pH 8.0. Finally, the proteins were purified by size exclusion chromatography on a Superdex75 column (GE Healthcare) in 20 mM sodium phosphate buffer, pH 8.0, with an elution volume characteristic for trimeric MIF2. The collected protein was concentrated using a VivaSpin centrifugation column with a molecular weight cut off at 5000 D a (Sartorius Stedim Biotech GmbH). Purified proteins were aliquoted, snap frozen in liquid nitrogen, and stored at –80 °C. Purity of obtained protein was tested by SDS-PAGE and coomassie staining. The concentration of protein was determined using the Bradford a ssay.
(§2) 3.1 MIF and MIF2 Inhibition
(§3) The protocol for measuring inhibition of MIF or MIF2 tautomerase enzyme activity was described previously.[5] 500 nM MIF solution (180 µL) or 100 nM MIF2 solution (180 µL) in boric acid buffer ([…], pH 6.2) was mixed with 20 mM EDTA solution (10 µL) in demineralized water. A solution of the desired compound dissolved in DMSO (10 µL) or blank DMSO (10 µL) was added. The resulting mixture was preincubated at room temperature for 10 minutes.
(§4) Subsequently, 50 µL of this mixture was mixed with 50 µL of a 1 mM 4-HPP solution for MIF or 1 mM PP solution for MIF2 in ammonium acetate buffer (50 mM, pH 6.0). Thereafter, MIF or MIF2 tautomerase activity was monitored by measuring the increase of UV absorbance at 306 nm for MIF or 300 nm for MIF2 over time. The MIF or MIF2 tautomerase activity of the mixture with blank DMSO dilution was set to 100% enzyme activity. Noncatalyzed conversion of the substrate in the mixture without MIF or MIF2 was set to 0%. The data acquired from the first 3 minutes of the measurement were used to calculate the initial conversion speed. All experiments were performed in triplicate and data processing was done using the program […]
(§5) Table S1. IC50 values (10 min) and inactivation parameters of synthesized compounds.
(§6) (1 picture or pasted object on this page, not shown here)

The target of assay [2] is T2, MIF2 (Homo sapiens, UniProt P30046).
T2 construct: made in house; host or cells: E. coli BL21(DE3), pET20b(+)
T2 sequence (P30046 2-118 limits assumed): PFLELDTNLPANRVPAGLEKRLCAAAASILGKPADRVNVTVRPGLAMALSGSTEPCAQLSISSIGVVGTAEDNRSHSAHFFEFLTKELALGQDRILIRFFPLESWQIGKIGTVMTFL
In words: MIF2 tautomerase activity inhibition (PP substrate, UV 300 nm). As to the method:
2. Preparation of recombinant MIF and MIF2. […]
Purity of obtained protein was tested by SDS-PAGE and Coomassie staining. […]
as §1, §2, §3, §4, §5, §6

Assay [3] concerns the target T1, MIF. The experiment in a line: Kitz-Wilson inactivation kinetics on MIF tautomerase. The settings on record: for KI (inactivation) / kinact: Kitz-Wilson analysis, ±SD, n=3; for KI (inactivation): read-out: KI MIF (inhibition constant); for kinact: read-out: kinact MIF (rate of enzyme inactivation) (converted). How it is done: (§7) In order to derive the kinetic parameters for inactivation of MIFand MIF2, we employed the approach described by Kitz and Wilson. Briefly, four different concentrations of the inhibitor with four different pre-incubation times were selected. The assay conditions are described above with the difference in incubation time.
(§8) For the data analysis, the pre-incubation times for the different concentration of the inhibitor versus the remaining enzyme activity were plotted, so from the linear regression the slope of each concentration of the probe was obtained ( Table S3). Then the 1/slope versus 1/[inhibitor] were plotted (Figure 4) and from the linear regression line ki was derived from the 1/y -intercept and derived from the slope times the ki as described by Kitz and Wilson.
For example, for the probe 8 the equation is: Y = 7,476*X + 5,069
So, the kinact and the KI values are: kinact =1/5,069 =0.20 min-1
(also on this page, place not known: -1 0 1 2 3 0 50 100 log [FM011] (µM) DDT (%) -1 0 1 2 3 0 50 100 log [ZP308] (µM) DDT activity (%) 0.0 0.5 1.0 1.5 2.0 0 50 100 log [ZP307] (µM) DDT activity (%) 1.4 1.6 1.8 2.0 2.2 0 50 100 log [FM031] (µM) DDT activity (%) pre -incubation cond itions pre -incubation activity o f (Table 1/y-intercept) […]
(§9) Table S4. Kinetics studies results.
(§10) Time-dependent inhibition Kitz and Wilson curve […]
ln (MIF tautomerase activity %)
Time-dependent inhibition on MIF Y = 7,476*X + 5,069
Time-dependent inhibition on MIF Y = 12,07*X + 4,234 […]
ln (MIF2 tautomerase activity %)
(§11) Time-dependent inhibition on MIF2 Y = 299,5*X + 11,14 […]

For assay [4], the target named is T2, MIF2. In words: Kitz-Wilson inactivation kinetics on MIF2 tautomerase. The conditions noted are these: Kitz-Wilson analysis, ±SD, n=3. How it is done:
as §7, §8
For example, for the probe 8 the equation is: Y = 7,476*X + 5,069 […]
as §9, §10
ln (MIF tautomerase activity %) […]
as §11

Where [5] appears, read: Table S1, 10 min, read-out: IC50 (µM) MIF.
[6] abbreviates: Table S1, 10 min, read-out: IC50 (µM) MIF2.
Where [7] appears, read: Table 1, tautomerase activity, mean±SD, n=3, read-out: IC50 MIF.
The mark [8] stands for this setting: Table 1, tautomerase activity, mean±SD, n=3, read-out: IC50 MIF2.
Setting [9] is: Table 2, 10 min pre-incubation, ±SD, n=3, read-out: IC50 MIF.
The mark [10] stands for this setting: Table 2, 10 min pre-incubation, ±SD, n=3, read-out: IC50 MIF2.

Each structure is given as a SMILES string. Read-outs that look alike come from different tables or passages of the source.

The values that follow come from PMC9299485, “4‐Iodopyrimidine Labeling Reveals Nuclear Translocation and Nuclease Activity for Both MIF and MIF2” (Chemistry (Weinheim an Der Bergstrasse, Germany), 2021).

For orientation: IC50 means the midpoint of a concentration-inhibition curve. The term kinact denotes the maximal first-order rate at which the target is inactivated.

As for `O=C(O)c1ccc(-c2cc(Cl)ncn2)cc1` [Compound 2a], the values for the IC50 in assay [1] (setting [5]) and in assay [2] (setting [6]) were 17 µM and greater than 250 µM, respectively.
Regarding `Cc1nc(I)cc(-c2ccc(C(=O)O)cc2)n1` [Compound 3], the IC50 in assay [1] (setting [7]) and in assay [2] (setting [8]) was greater than 250 µM throughout.
As for `Ic1cc(-c2ccccc2)ncn1` [Compound 1, 4‐iodo‐6‐phenylpyrimidine, reference compound], the IC50 in assay [1] (setting [7]) is 4 ± 0.98 µM; in assay [2] (setting [8]), greater than 250 µM. The “potency relative to corresponding chloro-substituted intermediate” value in assay [1] (Table S1) is listed as “at least two times more potent”.
For `Cc1nc(Cl)cc(-c2ccc(C(=O)O)cc2)n1` [Compound 3a], the IC50 in assay [1] (setting [5]) came to 95 µM; in assay [1] (Table S2 dose-inhibition curves, read-out: IC50 MIF tautomerase), 72 ± 17 µM; in assay [2] (setting [6]) it was 103 µM; in assay [2] (Table S3 dose-inhibition curves (DDT activity), read-out: IC50 MIF2 tautomerase), 107 ± 6 µM.
For `CC(C)c1nc(Cl)cc(-c2ccc(C(=O)O)cc2)n1` [Compound 11a, 4-(6-Chloro-2-isopropylpyrimidin-4-yl)benzoic acid], the IC50 in assay [1] (setting [5]) and in assay [2] (setting [6]) was greater than 250 µM each time.
As to `O=[N+]([O-])c1ccc(-c2cc(Cl)ncn2)cc1` [Compound 7a, 4-Chloro-6-(4-nitrophenyl)pyrimidine], the IC50 in assay [1] (setting [5]) is 1.4 µM; in assay [2] (setting [6]), greater than 250 µM.
As for `O=C(O)c1ccc(-c2cc(I)nc(-c3ccccc3)n2)cc1` [Compound 5, 4-(6-Iodo-2-phenylpyrimidin-4-yl)benzoic acid], the IC50 in assay [1] (setting [7]) is 59 ± 6.3 µM; in assay [2] (setting [8]) it was greater than 250 µM.
On to `Cc1c(Cl)ncnc1-c1ccc(C(=O)O)cc1` [Compound 6a, 4-(6-Chloro-5-methylpyrimidin-4-yl)benzoic acid], for which the half-maximal inhibitory concentration (IC50) in assay [1] (setting [5]) and in assay [2] (setting [6]) was greater than 250 µM in each case.
As to `O=[N+]([O-])c1ccc(-c2cc(I)ncn2)cc1` [Compound 7, 4-Iodo-6-(4-nitrophenyl)pyrimidine], the IC50 in assay [1] (setting [7]) is 0.63 ± 0.06 µM; in assay [1] (setting [9]), 0.63 ± 0.06 µM; in assay [2] (setting [8]), greater than 250 µM; in assay [2] (setting [10]), greater than 250 µM. Moreover, in assay [1] (from tautomerase IC50 values), the “selectivity for MIF over MIF2” value is recorded as greater than 400 fold. The “potency relative to corresponding chloro-substituted intermediate” value in assay [1] (Table S1) is recorded as “at least two times more potent”. In addition, the KI (inactivation) in assay [3] is 3.9 ± 0.7 µM. The kinact in assay [3] was 0.00467 s⁻¹.
With `O=C(O)c1ccc(-c2cc(Cl)nc(-c3ccccc3)n2)cc1` [Compound 5a, 4-(6-Chloro-2-phenylpyrimidin-4-yl)benzoic acid], the IC50 is 36 µM in assay [1] (setting [5]) and 85 µM in assay [2] (setting [6]).
Turning to `O=C(CCCC[C@@H]1SC[C@@H]2NC(=O)N[C@@H]21)NCCNC(=O)c1ccc(-c2cc(I)ncn2)cc1` [Compound 9], the concentration for half-maximal inhibition (IC50) was 0.24 ± 0.05 µM in assay [1] (setting [9]); roughly 0.2 µM in assay [1] (approximate, read-out: IC50 on MIF); 78 ± 7.7 µM in assay [2] (setting [10]). Besides, the “KI on MIF relative to IC50” value in assay [3] (KI higher than IC50) is reported as “about 10 times”. Also, the results for the KI (inactivation) in assay [3] and in assay [4] (read-out: KI MIF2 (inhibition constant)) were 2.8 ± 0.67 µM and 85 ± 8.6 µM, respectively. The results for the kinact in assay [3] and in assay [4] (read-out: kinact MIF2 (rate of enzyme inactivation)) were 0.004 s⁻¹ and 0.001 to 0.0015 s⁻¹, respectively. Besides, the “improvement of potency for MIF2 inhibition compared to parental inhibitor 2” value in assay [2] is given as 2–6 factor. Moreover, in assay [4], the “kinact MIF2 (rate of enzyme inactivation)” value worked out at 0.061 ± 0.010 min⁻¹.
For the compound `Nc1ccc(-c2cc(Cl)ncn2)cc1` [Compound 8a, 4-(6-Chloropyrimidin-4-yl)aniline], the concentration for half-maximal inhibition (IC50) in assay [1] (setting [5]) amounted to 1.7 µM; in assay [2] (setting [6]), 83 µM.
As for `O=C(O)c1ccc(-c2cc(I)nc(N3CCOCC3)n2)cc1` [Compound 4], the IC50 was 15 ± 7.5 µM in assay [1] (setting [7]) and greater than 250 µM in assay [2] (setting [8]). Further, the “potency relative to corresponding chloro-substituted intermediate” value in assay [1] (Table S1) is “at least two times more potent”.
`CC(C)c1nc(I)cc(-c2ccc(C(=O)O)cc2)n1` [Compound 11, 4-(6-Iodo-2-isopropylpyrimidin-4-yl)benzoic acid]: the figures for the half-maximal inhibitory concentration (IC50) in assay [1] (setting [5]) and in assay [2] (setting [6]) were 112 µM and greater than 250 µM, respectively.
Take `Clc1cc(-c2ccccc2)ncn1` [Compound 1a]: the IC50 is 16 µM in assay [1] (setting [5]) and greater than 250 µM in assay [2] (setting [6]).
Regarding `Cc1c(I)ncnc1-c1ccc(C(=O)O)cc1` [Compound 6, 4-(6-Iodo-5-methylpyrimidin-4-yl)benzoic acid], the results for the IC50 in assay [1] (setting [7]) and in assay [2] (setting [8]) were 56 ± 12 µM and greater than 250 µM, respectively. Besides, the “potency relative to corresponding chloro-substituted intermediate” value in assay [1] (Table S1) was “at least two times more potent”.
Regarding `O=C(O)c1ccc(-c2cc(Cl)nc(N3CCOCC3)n2)cc1` [Compound 4a], the IC50 in assay [1] (setting [5]) was 174 µM; in assay [2] (setting [6]), greater than 250 µM.
